Our source for the Infection in % and melting point values is patent US20080207455A1, “5,6-Dialkyl-7-Aminoazolopyrimidines, Their Preparation and Their Use for Controlling Harmful Fungi, and Compositions Comprising These Compounds” (BASF AKTINGESELLSCHAFT, priority 2005, published 2008).

Data set [1] deals with Plasmopara viticola. Description: Activity against peronospora of grapevines caused by Plasmopara viticola (protective leaf spray, potted vines). It is filed as in vivo. As to conditions: comparison with the closest prior art, concentration not restated in the table, untreated 100. The protocol: The mixture was then made up to 100 ml with water. This stock solution was diluted with the solvent/emulsifier/water mixture described to the concentration of active compounds stated below. Use example 1—Activity against peronospora of grapevines caused by Plasmopara viticola Leaves of potted vines were sprayed to runoff point with an aqueous suspension comprising 250 ppm of active compound. The next day, the undersides of the leaves were inoculated with an aqueous sporangia suspension of Plasmopara viticola. The vines were then initially placed in a water vapor-saturated chamber at 24° C. for 48 hours and then in a greenhouse at temperatures between 20 and 30° C. for five days. After this time, the plants were once more placed in a humid chamber for 16 hours to accelerate the eruption of sporangiophores. The extent of the development of the infection on the undersides of the leaves was then determined visually.

With `CCCCCCCCCCc1c(C)nc2cc(C)nn2c1N` [Compound 28, reference compound], in data set [1], the Infection in % is reported as 40%. Consider `CCc1nc2nc(C)nn2c(N)c1CCC(C)CC(C)(C)C` (stereo not shown) [Compound I-1, 5-ethyl-2-methyl-6-(3,5,5-trimethylhexyl)-[1,2,4]triazolo[1,5-a]pyrimidin-7-ylamine], for which the melting point (as a rule, the temperature of the solid-liquid transition) lay within 180 to 181 °C. Compound `CCCCCCCCCCc1c(CC)nc2cc(C)nn2c1N` [Compound I-4] had a melting point of 130 to 131 °C. The compound also had an Infection in % in data set [1] of 3%.
